Where a name gives a salt, the structure may show the parent alone. Marks after values point to notes of the source that are not given here.

These results are taken from patent US8778948B2, “Substituted phenylpiperazinyl aralkylalcohol derivatives, pharmaceutical compositions containing such derivatives and uses thereof” (priority 2008, dated 2014).

Data set [1] concerns Kunming mice. The experiment in a line: Acetic acid-induced abdominal writhing test in mice. The note with it: 1 h before 0.7% acetic acid i.p. The class given is in vivo. The method, then:
Acetic Acid-Induced Abdominal Writhing Test in Mice
Kunming mice, SPF KM mice purchased from […] SLAC LABORATORY ANIMAL CO. LTD and kept in normal environment.
(§1) 2. Modes of Administration
The compounds were dissolved in water for injection at a concentration of 4 mg/ml, 2 mg/ml and 1 mg/ml and were given intragastrically to animals.
(§2) Three different doses (10, 20, and 40 mg/kg) were administered to the test groups.
Aspirin was used as a positive control and acetic acid writhing test was used.
30 mice (half male and half female) weighing 18-23 g were divided into five groups, including negative control group, positive control group, low dose group, medium dose group and high dose group:
Mice in test group received test drug (10 mg/kg, 20 mg/kg, 40 mg/kg) via intragastric administration. Negative control group received physiological saline (20 ml/kg) via oral administration. Positive control group received aspirin (200 mg/kg) via oral administration. One hour later, each group received 0.7% acetic acid 10 ml/kg intraperitoneally. Five minutes later, the number of writhes was counted within the subsequent 15 min period; inhibition percentage of writhing response in each test group was calculated by the following equation: […]

Data set [2] relates to Kunming mice. The experiment in a line: Hot-plate test in mice. As to conditions: 1 h post dose, hot plate 55° C. The class given is in vivo. The method, then: Kunming mice, SPF KM mice were purchased from […] SLAC LABORATORY ANIMAL CO. LTD and kept in normal environment.
as §1
The compounds were dissolved in water for injection at a concentration of 4 mg/ml, 2 mg/ml and 1 mg/ml and were given subcutaneously to animals.
as §2
Morphine was used as a positive control and hot plate test was used.
30-40 mice (half male and half female) weighing 18-23 g were used. First, each mouse was placed on a hot plat at 55° C. to determine basic pain threshold for 2-3 times. Those animals with basic pain threshold of 5-30 s were qualified, unqualified mice were not used. 30 qualified mice were divided into five groups, including negative control group, positive control group, low-dose group, medium-dose group and high-dose group:
Mice in test groups received test sample solution (10 mg/kg, 20 mg/kg, 40 mg/kg) via subcutaneous injection in the neck. Positive control group received subcutaneous injection of morphine (2 mg/kg). One hour later, pain threshold values were determined for mice in each group as post-drug pain threshold. Percentage increase in pain threshold was calculated according to the following equation: […]

In data set [3] the target is opioid receptor subtype κ (Homo sapiens, UniProt P41145). The experiment in a line: biochemical. In kind it is binding. As to conditions: test concentration 10^−5 mol/L; [3H]Diprenorphine 0.4 nM; mean±SE; read-out: Inhibition percentage of competitive binding, κ. The method, then: (§3) Competitive Binding Between the Compounds and Opioid Receptor Subtypes μ, δ, κ
(§4) The respective test compounds were added to the sample tube (final concentration of 10^−5M), incubated at 37° C. for 30 min and placed in ice bath to terminate the reaction. The reaction mixture was filtered through GF/C(Whatman) glass fiber filter by vacuum filtration on a Millipore sample collector. The filter was washed three times with 50 mM Tris-HCl (pH7.4), each with 4 ml; dried and transferred into a 0.5 ml Eppendorf tube, in which 0.5 ml lipophilic scintillation fluid was added. Radioactivity was detected by a LS6500 scintillation counter. Each concentration had three duplicate test tubes and each separate test was repeated 3 to 4 times.
(§5) Specific binding CMP value for each sample tube=overall binding CPM value for each sample tube-CPM value of non-specific binding tube. [Inhibition percentage of competitive binding between the test compound and different opioid receptor subtypes (%)=(100%−specific binding (CPM value) of sample tube/specific binding (CPM value) of solvent group×100%)]
(§6) Average was taken for each test drug from three duplicate tubes; each test was repeated two or more times.

Data set [4] has as its target opioid receptor subtype μ (Homo sapiens, UniProt P35372). The experiment in a line: biochemical. The class given is binding. As to conditions: test concentration 10^−5 mol/L; [3H]Diprenorphine 0.4 nM; mean±SE; read-out: Inhibition percentage of competitive binding, μ. The method, then: as §3, §4, §5, §6
Data set [5] addresses opioid receptor subtype δ (Homo sapiens, UniProt P41143). The data set is described as follows: Competitive radioligand binding ([3H]Diprenorphine), opioid receptor subtype δ. The note with it: read-out: Inhibition percentage of competitive binding, δ. The method, then: as §3, §4, §5
Average was taken for each test drug from three duplicate tubes; each test was repeated two or more times. Data were presented as mean±SE and statistical comparison was made by ANOVA.

Sequence of opioid receptor subtype δ (P41143 whole entry): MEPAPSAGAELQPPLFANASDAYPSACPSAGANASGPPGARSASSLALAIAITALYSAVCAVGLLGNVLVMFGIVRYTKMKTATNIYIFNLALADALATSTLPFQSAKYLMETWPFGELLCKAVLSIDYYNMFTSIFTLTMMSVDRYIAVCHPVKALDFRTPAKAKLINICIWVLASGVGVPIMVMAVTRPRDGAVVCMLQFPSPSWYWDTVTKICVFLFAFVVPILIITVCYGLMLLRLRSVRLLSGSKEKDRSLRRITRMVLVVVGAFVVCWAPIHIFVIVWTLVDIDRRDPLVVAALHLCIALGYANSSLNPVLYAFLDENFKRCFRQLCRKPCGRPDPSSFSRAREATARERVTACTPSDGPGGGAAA
Sequence of opioid receptor subtype μ (P35372 whole entry): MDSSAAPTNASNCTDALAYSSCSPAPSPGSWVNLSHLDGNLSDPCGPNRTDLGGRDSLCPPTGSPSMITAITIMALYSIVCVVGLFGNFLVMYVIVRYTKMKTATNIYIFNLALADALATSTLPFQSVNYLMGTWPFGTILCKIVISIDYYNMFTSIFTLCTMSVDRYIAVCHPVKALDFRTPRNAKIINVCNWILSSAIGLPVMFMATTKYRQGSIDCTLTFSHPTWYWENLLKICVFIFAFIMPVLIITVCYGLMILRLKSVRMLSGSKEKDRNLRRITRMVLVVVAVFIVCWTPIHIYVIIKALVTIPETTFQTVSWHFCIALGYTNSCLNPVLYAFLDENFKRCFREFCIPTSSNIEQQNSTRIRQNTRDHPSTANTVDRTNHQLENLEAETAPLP
Sequence of opioid receptor subtype κ (P41145 whole entry): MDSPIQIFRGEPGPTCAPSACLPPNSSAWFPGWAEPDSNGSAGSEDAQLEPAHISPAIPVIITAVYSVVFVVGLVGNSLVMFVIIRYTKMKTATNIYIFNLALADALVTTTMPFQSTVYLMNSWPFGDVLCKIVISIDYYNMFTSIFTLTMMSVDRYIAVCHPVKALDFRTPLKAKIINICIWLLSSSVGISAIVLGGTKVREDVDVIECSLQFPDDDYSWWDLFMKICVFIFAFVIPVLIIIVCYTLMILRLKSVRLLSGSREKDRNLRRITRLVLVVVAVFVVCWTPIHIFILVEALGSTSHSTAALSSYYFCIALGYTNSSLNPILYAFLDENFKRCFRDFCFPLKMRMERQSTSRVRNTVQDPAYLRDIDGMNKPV

As usually defined, the melting point is the temperature, or range, at which the solid turns liquid. Consider `COc1ccccc1N1CCN(C(C)C(O)c2ccc3[nH]c(=O)[nH]c3c2)CC1` (racemic) (as salt: hydrochloride), for which the melting point is 221 to 223 °C.

`CC(C(O)c1ccc2[nH]c(=O)sc2c1)N1CCN(c2cccc(C(F)(F)F)c2)CC1` (racemic) (as salt: hydrochloride) gave a melting point of 217 to 219 °C.

In turn, `COc1ccccc1N1CCN([C@@H](C)[C@H](O)c2ccc3c(c2)CC(=O)N3)CC1` (racemic) (as salt: hydrochloride) [IV-1, (1RS,2SR)-5-(1-hydroxy-2-(4-(2-methoxyphenyl)piperazin-1-yl)propyl)indolin-2-one] came in with a melting point of 213 to 215 °C.

As to `C[C@H]([C@H](O)c1ccccc1)N1CCN(c2cccc(C(F)(F)F)c2)CC1` (racemic) [Compound I-2, (1RS,2RS)-1-phenyl-2-(4-(3-trifluoromethylphenyl)piperazinyl)-propan-1-ol], the “Inhibition percentage of writhing response” value (“Inhibition percentage” for short) is recorded as 40.53% in the data set with Kunming mice [1] (10 mg/kg Ig), 63.16 * % in the data set on Kunming mice [1] (20 mg/kg Ig) and 68.95 * % in the data set with Kunming mice [1] (40 mg/kg Ig).

For the compound `C[C@@H]([C@H](O)c1ccccc1)N1CCN(c2cccc(Cl)c2)CC1` (racemic) [Compound I-3, (1RS,2SR)-1-phenyl-2-(4-(3-chlorophenyl)piperazinyl)-propan-1-ol], the “Inhibition percentage” value was 49.61% in the data set with Kunming mice [1] (10 mg/kg Ig), 76.38 * % in the data set on Kunming mice [1] (20 mg/kg Ig) and 83.46 ** % with Kunming mice [1] (40 mg/kg Ig).

For the compound `C[C@H]([C@H](O)c1ccccc1)N1CCN(c2cccc(Cl)c2)CC1` (racemic) [Compound I-4, (1RS,2RS)-1-phenyl-2-(4-(3-chlorophenyl)piperazinyl)-propan-1-ol], the “Inhibition percentage” value is 35.00% in the data set on Kunming mice [1] (10 mg/kg Ig), 49.38 * % in the data set on Kunming mice [1] (20 mg/kg Ig) and 78.13 ** % in the data set on Kunming mice [1] (40 mg/kg Ig).

Consider `COc1ccc(N2CCN([C@@H](C)[C@H](O)c3ccccc3)CC2)cc1` (racemic) [Compound I-7, (1RS,2SR)-1-phenyl-2-(4-(4-methoxyphenyl)piperazinyl)-propan-1-ol], for which the “Inhibition percentage” value is reported as 61.02% in the data set with Kunming mice [1] (10 mg/kg Ig), 75.42 ** % in the data set with Kunming mice [1] (20 mg/kg Ig) and 70.34 * % in the data set on Kunming mice [1] (40 mg/kg Ig).

Consider `COc1ccc([C@@H](O)[C@H](C)N2CCN(c3ccccc3OC)CC2)cc1` (racemic) [Compound I-13, (1RS,2SR)-1-(4-methoxyphenyl)-2-(4-(2-methoxyphenyl)piperazinyl)-propan-1-ol], for which the “Inhibition percentage” value in the data set with Kunming mice [1] (10 mg/kg Ig) was 73.33 * %; in the data set with Kunming mice [1] (20 mg/kg Ig), 84.55 * %; in the data set on Kunming mice [1] (40 mg/kg Ig), 87.88 ** %. In addition, the “Percentage increase in pain threshold” value is 16.19% in the data set on Kunming mice [2] (10 mg/kg S.c.), 74.59 * % in the data set with Kunming mice [2] (20 mg/kg S.c.) and 142.41 ** % with Kunming mice [2] (40 mg/kg S.c.).

Take `COc1ccc([C@@H](O)[C@@H](C)N2CCN(c3ccccc3OC)CC2)cc1` (racemic) [Compound I-14, (1RS,2RS)-1-(4-methoxyphenyl)-2-(4-(2-methoxyphenyl)piperazinyl)-propan-1-ol]: the “Inhibition percentage” value is given as 74.55 * % in the data set on Kunming mice [1] (10 mg/kg Ig), 79.39 * % in the data set with Kunming mice [1] (20 mg/kg Ig) and 76.36% with Kunming mice [1] (40 mg/kg Ig).

As to `C[C@@H]([C@H](O)c1ccc(NS(C)(=O)=O)cc1)N1CCN(c2cccc(C(F)(F)F)c2)CC1` (racemic) [Compound I-17, (1RS,2SR)-1-(4-methanesulfonamidophenyl)-2-(4-(3-trifluoromethylphenyl)piperazinyl)-propan-1-ol], the “Percentage increase in pain threshold” value in the data set on Kunming mice [2] (10 mg/kg S.c.) was 59.02%; with Kunming mice [2] (20 mg/kg S.c.) it was 147.36 ** %; in the data set on Kunming mice [2] (40 mg/kg S.c.), 172.27 ** %.

By inhibition is commonly meant the percentage by which the read-out fell short of the control. For the compound `COc1ccccc1N1CCN([C@@H](C)[C@H](O)c2ccc3c(c2)CC(=O)N3)CC1` (racemic) [IV-1, (1RS,2SR)-5-(1-hydroxy-2-(4-(2-methoxyphenyl)piperazin-1-yl)propyl)indolin-2-one], the “Inhibition percentage” value was 92.92 ** % in the data set on Kunming mice [1] (10 mg/kg Ig), 74.34 * % in the data set with Kunming mice [1] (20 mg/kg Ig) and 89.38 ** % with Kunming mice [1] (40 mg/kg Ig). Also, the inhibition at 10 µM in data set [3] was found to be 5.3 ± 0.1%; in data set [4] it was 7.6 ± 0.8%; in data set [5], 0%.

Turning to `COc1ccccc1N1CCN([C@H](C)[C@H](O)c2ccc3c(c2)CC(=O)N3)CC1` (racemic) [IV-2, (1RS,2RS)-5-(1-hydroxy-2-(4-(2-methoxyphenyl)piperazin-1-yl)propyl)indolin-2-one], the “Inhibition percentage” value with Kunming mice [1] (10 mg/kg Ig) is 98.23 ** %; with Kunming mice [1] (20 mg/kg Ig), 97.35 ** %; in the data set with Kunming mice [1] (40 mg/kg Ig), 93.81 ** %.

Consider `CC(=O)Oc1ccccc1C(=O)O` [Aspirin, reference compound], for which, in the data set with Kunming mice [1] (positive control aspirin 200 mg/kg oral), the “Inhibition percentage” value is on record as 95.05 ** %.

`COc1ccccc1N1CCN([C@@H](C)[C@H](O)c2ccccc2)CC1` [II-1, (1R,2S)-1-phenyl-2-(4-(2-methoxyphenyl)piperazinyl)-propan-1-ol]: the “Inhibition percentage” value in the data set on Kunming mice [1] (10 mg/kg Ig) is on record as 30.09%; in the data set on Kunming mice [1] (20 mg/kg Ig), 47.79 * %; in the data set with Kunming mice [1] (40 mg/kg Ig), 58.41 * %.

Regarding `COc1ccccc1N1CCN([C@@H](C)[C@@H](O)c2ccccc2)CC1` [II-2, (1S,2S)-1-phenyl-2-(4-(2-methoxyphenyl)piperazinyl)-propan-1-ol], the “Inhibition percentage” value with Kunming mice [1] (10 mg/kg Ig) was 69.91 * %; in the data set on Kunming mice [1] (20 mg/kg Ig) it was 71.48 * %; with Kunming mice [1] (40 mg/kg Ig), 74.34 ** %. Moreover, the inhibition at 10 µM came to 36.5 ± 1.6% in data set [3], 5.3 ± 0.9% in data set [4] and 12.8 ± 0.8% in data set [5].

Regarding `COc1ccccc1N1CCN([C@H](C)[C@@H](O)c2ccccc2)CC1` [III-1, (1S,2R)-1-phenyl-2-(4-(2-methoxyphenyl)piperazinyl)-propan-1-ol], the “Inhibition percentage” value in the data set on Kunming mice [1] (10 mg/kg Ig) is 69.28 ** %; with Kunming mice [1] (20 mg/kg Ig), 55.56 * %; with Kunming mice [1] (40 mg/kg Ig), 67.32 ** %.

For `COc1ccccc1N1CCN([C@H](C)[C@H](O)c2ccccc2)CC1` [III-2, (1R,2R)-1-phenyl-2-(4-(2-methoxyphenyl)piperazinyl)-propan-1-ol], the “Inhibition percentage” value in the data set on Kunming mice [1] (10 mg/kg Ig) is 64.05 ** %; in the data set on Kunming mice [1] (20 mg/kg Ig), 76.47 ** %; in the data set on Kunming mice [1] (40 mg/kg Ig), 86.27 ** %. Further, the “Percentage increase in pain threshold” value is on record as 72.91% with Kunming mice [2] (10 mg/kg S.c.), 133.48 * % in the data set with Kunming mice [2] (20 mg/kg S.c.) and 151.86 * % with Kunming mice [2] (40 mg/kg S.c.). For the same compound, the inhibition at 10 µM was determined as 40 ± 0.6% in data set [3], 25.1 ± 1.3% in data set [4] and 16.8 ± 2.3% in data set [5].

For the compound `CN1CC[C@]23c4c5ccc(O)c4O[C@H]2[C@@H](O)C=C[C@H]3[C@H]1C5` [morphine, reference compound], the “Percentage increase in pain threshold” value in the data set with Kunming mice [2] (positive control morphine 2 mg/kg S.c.) is given as 202.5 ** %.
